# Assay results taken from patent publication US10301317B2, “Inhibitors of ERK and methods of use” (Kura Oncology, Inc., priority 2013, dated 2019).
# Test system: phospho-p90 RSK (RSK1 Thr359/Ser363) in A375 (Braf V600E) cells
# Assay: Phospho-p90 RSK ELISA using A375 (Braf V600E) cells
# Type: cell-based
# Conditions: Homo sapiens, A-375, 2 hours compound treatment, read-out: Cellular Phospho-p90RSK IC50
# Method: In preparation for the assay, an ELISA plate with the pre-coated goat anti-mouse antibody (Thermo Scientific) was treated with a mouse anti-human RSK1 antibody (monoclonal, Invitrogen) at 1:800 dilution (150 ng/well) in PBS, and the plate was placed on a plate shaker at 4° C. overnight. […] After two […] of the compound treatment, the supernatant was removed from the cell plate, and cells were lysed in 100 μl per well of cell lysis buffer (Cell Signaling Technologies) containing phosphatase and protease inhibitors (Cell Signaling Technologies) on a plate shaker at 4° C. for 20 minutes. The ELISA plate was washed four times with ELISA wash buffer (Thermo Scientific) prior to addition of 100 μL cell lysate. The lysate was incubated on the ELISA plate with gentle shaking at room temperature for 2 hours. The contents of the wells were removed, and the ELISA plate was washed four times with wash buffer, and incubated with 100 μL per well of anti-phospho-RSK1 (Thr359/Ser363) rabbit monoclonal antibody (Millipore) at dilution of 1:1000 in StartingBlock buffer (Thermo Scientific) on a plate shaker at room temperature for 1 hour. The contents of the wells were removed, the ELISA plate was washed four times with wash buffer, and was incubated with 100 μL per well of goat anti-rabbit HRP (Thermo Scientific) at dilution of 1:3000 in StartingBlock buffer (Thermo Scientific) on a plate shaker at room temperature for 1 hour. The contents of the wells were removed, the ELISA plate was washed four times with wash buffer, and then incubated with 100 μL per well of TMB substrate solution (Thermo Scientific) on a plate shaker at room temperature for 20 minutes. Finally, 100 μL of TMB stop solution (Thermo Scientific) was added to each well and the absorbance is measured at 450 nm on a Tecan plate reader.
row,SMILES,IC50
1,O=C1Nc2cc3[nH]nc(-c4ccnnc4)c3cc2CN1Cc1cccc(C(F)(F)F)c1 [Example 124],0.25 to 1 µM
2,Cc1cc(-c2n[nH]c3cc4c(cc23)CN([C@@H]2CCN(c3cccc(Cl)c3)C2)C(=O)N4)ccn1 [Example 249],≤ 0.25 µM
3,COc1ncc(-c2n[nH]c3cc4c(cc23)CN(Cc2cc(F)cc(F)c2)C(=O)N4)cn1 [Example 88],≤ 0.25 µM
4,Cc1cc(-c2n[nH]c3cc4c(cc23)CN(C(C)C2CCOCC2)C(=O)N4)ccn1 (centres unmarked) [Example 262],≤ 0.25 µM
5,Cc1cc(-c2n[nH]c3cc4c(cc23)CN([C@@H]2CN(CCC(F)(F)F)C[C@H]2c2ccccc2)C(=O)N4)ccn1 (mixture of isomers) [Example 387],0.25 to 1 µM
6,Cc1cc(-c2n[nH]c3cc4c(cc23)CN([C@H]2CN(CC(F)F)C[C@@H]2c2ccccc2)C(=O)N4)cc(C)n1 [Example 385],> 1 µM
7,Cc1cc(-c2n[nH]c3cc4c(cc23)CN(CC2CC2)C(=O)N4)ccn1 [Example 258],≤ 0.25 µM
8,Cc1cc(-c2n[nH]c3cc4[nH]c(=O)c(CC5CCCCC5)cc4cc23)ccn1 [Example 266],≤ 0.25 µM
9,Cc1cc(-c2n[nH]c3cc4c(cc23)CN([C@H]2CCCN(CC(F)(F)F)C2)C(=O)N4)ccn1 [Example 309],0.25 to 1 µM
10,CC(c1ccccc1)c1cc2cc3c(N4CCN(C)CC4)n[nH]c3cc2[nH]c1=O (centres unmarked) [Example 358],> 1 µM
11,Cc1cc(-c2n[nH]c3cc4c(cc23)CN([C@@H]2CCCN(Cc3ncccc3C)C2)C(=O)N4)ccn1 [Example 168],0.25 to 1 µM
12,Cc1cc(-c2n[nH]c3cc4c(cc23)CN([C@@H]2CCCN(Cc3cccnc3C)C2)C(=O)N4)ccn1 [Example 170],0.25 to 1 µM
13,O=C1Nc2cc3[nH]nc(-c4ccnnc4)c3cc2CN1Cc1cc(F)cc(F)c1 [Example 127],0.25 to 1 µM
14,Cc1cc(-c2n[nH]c3cc4c(cc23)CN(C2CCN(CCc3ccccc3)CC2)C(=O)N4)ccn1 [Example 157],> 1 µM
15,Cc1cc(-c2n[nH]c3cc4c(cc23)CN(C2CCN(Cc3ccccc3)CC2)C(=O)N4)ccn1 [Example 70],0.25 to 1 µM
16,Cc1cc(-c2n[nH]c3cc4c(cc23)CN([C@@H]2CN(C)C[C@H]2C(C)C)C(=O)N4)ccn1 (mixture of isomers) [Example 327],> 1 µM
17,O=C1Nc2cc3[nH]nc(-c4ccc5nncn5c4)c3cc2CN1Cc1cccc(Cl)c1 [Example 59],> 1 µM
18,Cc1cc(-c2n[nH]c3cc4c(cc23)CN([C@@H]2CCN(C(C)C)C2)C(=O)N4)ccn1 [Example 268],> 1 µM
19,Cc1cc(-c2n[nH]c3cc4c(cc23)CN(Cc2ccc(C(F)(F)F)cc2)C(=O)N4)cc(C)n1 [Example 233],≤ 0.25 µM
20,Cc1cc(-c2n[nH]c3cc4c(cc23)CN(C2CN(CCC3CC3)C2)C(=O)N4)ccn1 [Example 189],> 1 µM
21,COCCOCCN1Cc2cc3c(-c4ccnc(C)c4)n[nH]c3cc2NC1=O [Example 45],0.25 to 1 µM

row,SMILES,IC50
1,CC(c1ccccc1)c1cc2cc3c(N4CCOCC4)n[nH]c3cc2[nH]c1=O (centres unmarked) [Example 345],≤ 0.25 µM
2,Cc1ccc(-c2n[nH]c3cc4[nH]c(=O)c(C5CCCN(Cc6ccccc6)C5)cc4cc23)cn1 (centres unmarked) [Example 373],0.25 to 1 µM
3,Cc1cc(-c2n[nH]c3cc4[nH]c(=O)c(Cc5ccccc5)cc4cc23)ccn1 [Example 6],≤ 0.25 µM
4,Cc1cc(-c2n[nH]c3cc4c(cc23)CN([C@@H]2CNC[C@H]2c2ccccc2)C(=O)N4)ccn1 (racemic) [Example 223],0.25 to 1 µM
5,Cc1cc(-c2n[nH]c3cc4[nH]c(=O)c([C@@H](C)c5ccc(F)cc5)cc4cc23)ccn1 [Example 287],0.25 to 1 µM
6,Cc1cc(-c2n[nH]c3cc4c(cc23)CN([C@@H]2CCCN(Cc3cc(C(C)(C)C)no3)C2)C(=O)N4)ccn1 [Example 186],0.25 to 1 µM
7,COc1ccc(-c2n[nH]c3cc4c(cc23)CN(Cc2cccc(Cl)c2)C(=O)N4)cn1 [Example 75],≤ 0.25 µM
8,Cc1cc(-c2n[nH]c3cc4c(cc23)CN([C@@H]2CCCN(Cc3cc(C5CC5)on3)C2)C(=O)N4)ccn1 [Example 188],≤ 0.25 µM
9,Cc1cc(-c2n[nH]c3cc4c(cc23)CN(CCC2CC2)C(=O)N4)ccn1 [Example 283],> 1 µM
10,COc1cccc(F)c1CN1CCC[C@@H](N2Cc3cc4c(-c5ccnnc5)n[nH]c4cc3NC2=O)C1 [Example 126],≤ 0.25 µM
11,Cc1ncc(-c2n[nH]c3cc4c(cc23)CN(Cc2cccc(Cl)c2)C(=O)N4)cn1 [Example 90],≤ 0.25 µM
12,Cc1cc(-c2n[nH]c3cc4c(cc23)CN([C@@H]2CN(Cc3ccccc3)CC(F)(F)C2)C(=O)N4)ccn1 [Example 263],> 1 µM
13,Cc1cnccc1-c1n[nH]c2cc3[nH]c(=O)c(C(C)c4ccccc4)cc3cc12 (centres unmarked) [Example 343],> 1 µM
14,COc1ncc(-c2n[nH]c3cc4c(cc23)CN([C@@H]2CCCN(Cc3cccs3)C2)C(=O)N4)cn1 [Example 295],≤ 0.25 µM
15,Cc1cc(-c2n[nH]c3cc4c(cc23)CN([C@@H]2CCCN(CCc3ccccc3)C2)C(=O)N4)ccn1 [Example 145],0.25 to 1 µM
16,Cc1cc(-c2n[nH]c3cc4c(cc23)CN(CCNCc2ccc(F)cc2)C(=O)N4)ccn1 [Example 175],0.25 to 1 µM
17,O=C1Nc2cc3[nH]nc(-c4ccnnc4)c3cc2CN1Cc1ccc(F)cc1F [Example 114],0.25 to 1 µM
18,Cc1cc(-c2n[nH]c3cc4c(cc23)CN([C@@H]2CCCN(CC3CC5CCC3C5)C2)C(=O)N4)ccn1 (some centres unmarked) [Example 142],≤ 0.25 µM
19,Cc1cc(-c2n[nH]c3cc4c(cc23)CN(C2CCC(=O)N(Cc3ccccc3)C2)C(=O)N4)ccn1 (centres unmarked) [Example 232],0.25 to 1 µM
20,Cc1cc(-c2n[nH]c3cc4c(cc23)CN(CC2CCC2)C(=O)N4)ccn1 [Example 253],≤ 0.25 µM

# Results, then the compound that gave them:
row,IC50,SMILES
1,≤ 0.25 µM,COc1ccc(-c2n[nH]c3cc4c(cc23)CN([C@@H]2CN(C)C[C@H]2c2ccccc2)C(=O)N4)cn1 (mixture of isomers) [Example 353]
2,0.25 to 1 µM,C[C@H](c1ccc(Cl)cc1)N1Cc2cc3c(-c4ccnnc4)n[nH]c3cc2NC1=O [Example 115]
3,≤ 0.25 µM,Cc1cc(-c2n[nH]c3cc4c(cc23)CN(CC2CCOCC2)C(=O)N4)cc(C)n1 [Example 250]
4,0.25 to 1 µM,Cc1cc(-c2n[nH]c3cc4c(cc23)CN(C(C)CC(C)C)C(=O)N4)ccn1 (centres unmarked) [Example 53]
5,0.25 to 1 µM,COc1ncc(-c2n[nH]c3cc4c(cc23)CN([C@H](C)c2ccc(Cl)cc2)C(=O)N4)cn1 [Example 95]
6,0.25 to 1 µM,Cc1cc(-c2n[nH]c3cc4c(cc23)CN(Cc2ccccc2C(F)(F)F)C(=O)N4)ccn1 [Example 218]
7,> 1 µM,O=C1Nc2cc3[nH]nc(-c4ccnnc4)c3cc2CN1[C@H](CO)c1cccc(Cl)c1 [Example 117]
8,0.25 to 1 µM,Nc1ncc(-c2n[nH]c3cc4c(cc23)CN([C@@H]2CN(CC(F)(F)F)C[C@H]2c2ccccc2)C(=O)N4)cn1 [Example 351]
9,> 1 µM,Cc1cc(-c2n[nH]c3cc4c(cc23)CN(CCN(C)C)C(=O)N4)ccn1 [Example 46]
10,0.25 to 1 µM,Cc1cc(-c2n[nH]c3cc4c(cc23)CN(CCNCc2cccc(Cl)c2)C(=O)N4)ccn1 [Example 176]
11,> 1 µM,Cc1cc(-c2n[nH]c3cc4c(cc23)CN(CCN)C(=O)N4)ccn1 [Example 83]
12,0.25 to 1 µM,Cc1cc(-c2n[nH]c3cc4c(cc23)CN([C@@H]2CCCN(CC3CC3)C2)C(=O)N4)ccn1 [Example 62]
13,≤ 0.25 µM,COc1ncc(-c2n[nH]c3cc4c(cc23)CN([C@H](CO)c2cccc(Cl)c2)C(=O)N4)cn1 [Example 118]
14,> 1 µM,Cc1cc(-c2n[nH]c3cc4c(cc23)CN([C@@H]2CCCN(CCc3cccc(Cl)c3)C2)C(=O)N4)ccn1 [Example 164]
15,> 1 µM,Cn1nccc1-c1n[nH]c2cc3c(cc12)CN(Cc1cccc(Cl)c1)C(=O)N3 [Example 235]
16,> 1 µM,Cc1cc(-c2n[nH]c3cc4c(cc23)CN([C@@H]2CN(CC(F)(F)F)C[C@H]2C(C)(C)C)C(=O)N4)ccn1 [Example 329]
17,> 1 µM,Cc1cc(-c2n[nH]c3cc4[nH]c(=O)c(C(C)C5CCCCC5)cc4cc23)ccn1 (centres unmarked) [Example 160]
18,0.25 to 1 µM,COc1cc(-c2n[nH]c3cc4c(cc23)CN(Cc2ccc(F)c(Cl)c2)C(=O)N4)ccn1 [Example 38]
19,≤ 0.25 µM,COc1cc(-c2n[nH]c3cc4c(cc23)CN([C@@H]2CN(C)C[C@H]2c2ccccc2)C(=O)N4)ccn1 (mixture of isomers) [Example 354]
20,0.25 to 1 µM,Cc1cc(-c2n[nH]c3cc4[nH]c(=O)c(C5CCCC5)cc4cc23)ccn1 [Example 289]
21,≤ 0.25 µM,CC(c1ccccc1)c1cc2cc3c(-c4ccnc(N)c4)n[nH]c3cc2[nH]c1=O (centres unmarked) [Example 344]
22,≤ 0.25 µM,Cc1cc(-c2n[nH]c3cc4c(cc23)CN([C@@H]2CN(CC(F)(F)F)C[C@H]2C)C(=O)N4)ccn1 (racemic) [Example 302]
23,0.25 to 1 µM,Cc1cc(-c2n[nH]c3cc4c(cc23)CN([C@H]2CN(C)C[C@@H]2c2ccccc2)C(=O)N4)cc(C)n1 [Example 307]
24,≤ 0.25 µM,Cc1cc(-c2n[nH]c3cc4c(cc23)CN(CCC2CCOCC2)C(=O)N4)ccn1 [Example 220]
